Patent publication US7745393B2, “Minimalist bZIP proteins and uses thereof” (priority 2005, dated 2010)
Entries after “also recorded” stand apart in the source; their conditions may differ.

B1: Arnt-C/EBP: Arnt basic region and a portion of Helix 1 directly fused to the C/EBP zipper (protein)
chain: DQMSNDKERFARENHSEIERRRRNKMTAYITELSRIRLEQKVLELTSDNDRLRKRVEQLSRELDTL
modifications: Arnt-C/EBP
notes: Arnt basic region and a portion of Helix 1 directly fused to the C/EBP zipper
B2: Arnt1-C/EBP: Arnt basic region, RIR linker, C/EBP leucine zipper; SEQ ID No. 7 (protein)
chain: KFLRCDDDQMSNDKERFARENHSEIERRRRNKMTAYITERIRLEQKVLELTSDNDRLRKRVEQLSRELDTL
modifications: fusion protein

Legend:
E-box [1] = settings: high-salt conditions, in vitro; cited from earlier work
E-box [2] = experiment: LacZ colony-lift filter assay (X-gal); assay type: cell-based, S. cerevisiae; design: key to Colony-lift: +: blue; −: white; settings: for Colony-lift: LacZ-based X-gal colony-lift filter assay, blue/white screen; for colony-lift filter assay binding (color): X-gal substrate
Description: (§1) A modified yeast one-hybrid system (Y1H) (Wang MM and Reed RR. 1993, Nature, 364, 121) was used to examine the E-box binding activity of the hybrids in vivo. Two S. cerevisiae reporter strains were constructed: four tandem copies of the E-box were cloned upstream of either the his3 or LacZ reporters. In the his3 assay, the His3 protein is expressed upon binding of our hybrids at E-box, allowing yeast to survive under histidine auxotrophy (FIG. 6). Surviving colonies are visualized on plates with media lacking histidine and in the presence of 3-aminotriazole (3-AT), a competitive inhibitor of His3 that reduces background growth. Yeast was plated on 10-60 mM 3-AT as a qualitative test of binding strength to E-box. Hybrids were also tested by two assays based on the LacZ reporter, which encodes β-galactosidase. (Serebriiskii, I. G. and Golemis, E. A. 2000 Anal. Biochem. 285, 1. The qualitative colony-lift filter assay uses X-gal as substrate for calorimetric visualization of protein-DNA binding (FIG. 7). Positives display vivid blue color. The ortho-nitrophenyl-β-galactoside (ONPG) liquid assay is quantitative (FIG. 8). However, this assay is not sensitive enough to quantify weak interactions accurately, (Mökli, N. and Auerbach, D. 2004 BioTechniques 36, 872) so the far more sensitive colony-lift assay is also typically performed.

E-box target, 5′-CACGTG = experiment: yeast one-hybrid his3 reporter assay (colony growth on SD/-His/-Leu with 3-AT); assay type: cell-based, Saccharomyces cerevisiae; design: key to his3: +: positive; −: negative; settings: for his3 assay binding/colony growth: 30° C.; for binding to E-box / colony growth in yeast one-hybrid assay: 3-AT concentration not stated; for his3: positive/negative colony growth in yeast cells on plates
Description: A reporter strain was constructed such that the E-box target, 5′-CACGTG, resides upstream of the HIS3 reporter gene. The bHLH/bZIP hybrid was fused to the GAL4 transcriptional activation domain so that if a hybrid binds the E-box, the HIS3 protein will be expressed, thus allowing yeast to survive under conditions of histidine auxotrophy. Four tandem copies of the E-box (as shown in Table 9) were cloned into the pHISi-1 integrating reporter vector (Matchmaker One-Hybrid System, Clontech). After insertion of the E-box insert, the pHISi-1 vector was linearized and incorporated into the yeast genome by homologous recombination to generate Saccharomyces cerevisiae YM4271[pHISi-1/E-box]. To assess background due to the reporter, 3-aminotriazole (3-AT) was used as a competitive inhibitor of the HIS3 protein. Because it is possible that the reporter may be activated by endogenous factors, YM4271[pHISi-1/E-box] was subjected to titration with varying amounts of 3-AT to measure the concentration of 3-AT sufficient for suppression of background growth.
Transformation of the yeast cells was performed by electroporation. Following electroporation, cells were plated on minimal selective medium lacking leucine and histidine with the appropriate amount of 3-AT to suppress background.
as §1

E-box [3] = experiment: LacZ ONPG liquid assay (β-galactosidase); assay type: cell-based, S. cerevisiae; settings: for β-galactosidase activity: ONPG assay, FIG. 8, averages of nine to twelve measurements
Description: The measurement of binding of the minimalist bZIP proteins to the target DNA sequence is a LacZ-based quantitative assay using ortho-nitrophenyl-beta-galactoside as calorimetric substrate (ONPG). Minimalist bZIP proteins with ONPG values exceeding 10 beta-galactosidase units are considered to be good binders to the target DNA sequence. Minimalist bZIP proteins with ONPG values below 10 beta-galactosidase units are ideal for selection and evolution,
as §1

Molecule | Colony-lift (E-box [2]) | colony-lift filter assay binding (color) (E-box [2]) | his3 assay binding/colony growth (E-box target, 5′-CACGTG; 10 mM 3-AT) | binding to E-box / colony growth in yeast one-hybrid assay (E-box target, 5′-CACGTG) | his3 (E-box target, 5′-CACGTG) | ONPG (E-box [3]; Table 11) | β-galactosidase activity (E-box [3]) | also measured
Arnt bHLH: Arnt bHLH alone (56 amino acids), literature, Huffman et al. 2001 |  |  |  |  |  |  |  | Kd (E-box [1]): 56.2 ± 11.7 nM
Max-C/EBP: Max basic region, RIR linker, C/EBP leucine zipper; SEQ ID NO. 52, same sequence as SEQ ID No. 1 (ADKRAHHNALERKRRDHIKDSFHSRIRLEQKVLELTSDNDRLRKRVEQLSRELDTL; fusion protein) | − | no binding (clear) | no binding | undetectable | − | 2.2 ± 0.2 β-galactosidase units |  | his3 assay binding/colony growth (E-box target, 5′-CACGTG; 10 mM 3-AT, listed as Max/C-EBP): Binding undetectable
native Max bHLHZ: native Max bHLHZ (residues 22-113, 92 amino acids), positive control | + |  |  |  | + | 26.4 ± 7.7 β-galactosidase units | 26.4±7.7 | colony-lift filter assay binding (color) (E-box [2]; listed as Max bHLHZ): intense blue color; also recorded: positive binding (dark blue); colony-lift filter assay binding (color) (E-box [2]; listed as Native Max bHLHZ): positive binding (dark blue); his3 assay binding/colony growth (E-box target, 5′-CACGTG; 20 mM 3-AT): strong binding/colony growth; his3 assay binding/colony growth (E-box target, 5′-CACGTG; 60 mM 3-AT, listed as Max bHLHZ): good colony growth; his3 assay binding/colony growth (E-box target, 5′-CACGTG; 60 mM 3-AT, listed as Native Max bHLHZ): strong binding/colony growth; ONPG (E-box [3]; Table 12): 26.41 ± 7.73
B1 |  | extremely pale color; also recorded: no binding (clear) |  | no colony growth |  |  | 2.9±0.3 | 
B2 |  |  | able to bind to the E-box target DNA sequence |  |  |  |  | 
